The results in this text go back to patent US4260682A, “High sensitivity assays for angiotensin converting enzyme” (priority 1979, dated 1981).

SMILES strings stand for the structures. Peptide text beside a SMILES is read from it. * marks the point of attachment. Bz = O=C(c1ccccc1)*

The target of the test is T1, Guinea pig urinary ACE (Cavia porcellus, UniProt H0UWL7).
T1 sequence (H0UWL7 33-1302): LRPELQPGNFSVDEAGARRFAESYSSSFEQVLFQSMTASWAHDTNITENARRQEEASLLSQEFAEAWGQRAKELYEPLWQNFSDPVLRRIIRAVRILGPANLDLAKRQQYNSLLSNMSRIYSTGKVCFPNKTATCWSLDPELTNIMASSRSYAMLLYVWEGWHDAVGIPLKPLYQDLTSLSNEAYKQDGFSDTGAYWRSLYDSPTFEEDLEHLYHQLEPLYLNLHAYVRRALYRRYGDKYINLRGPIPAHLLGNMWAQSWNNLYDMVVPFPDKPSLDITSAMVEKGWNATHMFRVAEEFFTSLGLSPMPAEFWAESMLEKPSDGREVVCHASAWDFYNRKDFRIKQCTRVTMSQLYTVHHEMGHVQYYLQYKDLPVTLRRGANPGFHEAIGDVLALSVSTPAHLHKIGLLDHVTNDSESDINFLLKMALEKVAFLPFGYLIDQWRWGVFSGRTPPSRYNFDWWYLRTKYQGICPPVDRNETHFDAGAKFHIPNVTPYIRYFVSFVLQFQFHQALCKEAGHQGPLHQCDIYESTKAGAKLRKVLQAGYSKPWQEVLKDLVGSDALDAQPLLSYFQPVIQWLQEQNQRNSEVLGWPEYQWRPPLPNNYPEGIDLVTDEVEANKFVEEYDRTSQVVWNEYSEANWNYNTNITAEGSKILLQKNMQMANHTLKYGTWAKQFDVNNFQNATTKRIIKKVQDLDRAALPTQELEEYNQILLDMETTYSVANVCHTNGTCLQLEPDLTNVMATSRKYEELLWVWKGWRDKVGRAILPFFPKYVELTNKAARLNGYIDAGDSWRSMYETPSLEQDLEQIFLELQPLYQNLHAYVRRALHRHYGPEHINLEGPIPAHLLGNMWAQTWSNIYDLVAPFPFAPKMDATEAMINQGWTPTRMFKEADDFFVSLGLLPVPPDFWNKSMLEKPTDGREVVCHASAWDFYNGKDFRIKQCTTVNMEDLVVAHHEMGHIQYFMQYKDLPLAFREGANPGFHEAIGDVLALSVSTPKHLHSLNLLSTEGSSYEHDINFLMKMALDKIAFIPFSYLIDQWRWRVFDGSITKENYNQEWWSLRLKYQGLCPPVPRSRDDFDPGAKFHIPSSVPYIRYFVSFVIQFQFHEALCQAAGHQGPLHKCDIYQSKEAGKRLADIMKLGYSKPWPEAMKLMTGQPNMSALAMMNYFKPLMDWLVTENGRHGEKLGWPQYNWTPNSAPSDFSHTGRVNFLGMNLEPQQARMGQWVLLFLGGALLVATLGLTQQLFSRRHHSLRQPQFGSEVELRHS
The test is described as follows: Sulfate and chloride effects on ACE catalysed substrate hydrolysis. Type of test: biochemical. To be noted: 0.05M Hepes.

In the case of `CC(C)C[C@H](NC(=O)[C@H](Cc1c[nH]cn1)NC(=O)CNC(=O)c1ccccc1)C(=O)O` [HipHisLeu] (Bz-Gly-His-Leu-OH), the “Reaction Velocity, Per Cent of Substrate Hydrolyzed in 10 minutes” value (from here on “Reaction Velocity, Per Cent”) (pH 8.0, 0.0M NaCl, Na2 SO4 0 M) was 0 Per Cent; the “Reaction Velocity, Per Cent” value (pH 8.0, 0.0M NaCl, Na2 SO4 0.1 M) is listed as 0 Per Cent; the “Reaction Velocity, Per Cent” value (pH 8.0, 0.0M NaCl, Na2 SO4 0.2 M) was determined as 0 Per Cent; the “Reaction Velocity, Per Cent” value (pH 8.0, 0.0M NaCl, Na2 SO4 0.3 M) stood at 0 Per Cent; the “Reaction Velocity, Per Cent” value (pH 8.0, 0.0M NaCl, Na2 SO4 0.4 M) is reported as 0.1 Per Cent; the “Reaction Velocity, Per Cent” value (pH 8.0, 0.0M NaCl, Na2 SO4 0.5 M) stood at 0.1 Per Cent. For the same molecule, the “Reaction Velocity, Per Cent” value (pH 8.0, 0.0M NaCl, Na2 SO4 0.6 M) is listed as 0.25 Per Cent; the “Reaction Velocity, Per Cent” value (pH 8.0, 0.0M NaCl, Na2 SO4 0.7 M) is 0.25 Per Cent; the “Reaction Velocity, Per Cent” value (pH 8.0, 0.0M NaCl, Na2 SO4 0.75 M) was found to be 0.25 Per Cent; the “Reaction Velocity, Per Cent” value (pH 8.0, 0.0M NaCl, Na2 SO4 0.8 M) was determined as 0.25 Per Cent; the “Reaction Velocity, Per Cent” value (pH 8.0, 0.0M NaCl, Na2 SO4 0.9 M) stood at 0.7 Per Cent; the “Reaction Velocity, Per Cent” value (pH 8.0, 0.0M NaCl, Na2 SO4 1.2 M) is reported as 3.9 Per Cent. The “Reaction Velocity, Per Cent” value (pH 8.0, 0.1M NaCl, Na2 SO4 0 M) is listed as 0.3 Per Cent; the “Reaction Velocity, Per Cent” value (pH 8.0, 0.1M NaCl, Na2 SO4 0.4 M) worked out at 4.1 Per Cent; the “Reaction Velocity, Per Cent” value (pH 8.0, 0.1M NaCl, Na2 SO4 0.6 M) stood at 8.3 Per Cent; the “Reaction Velocity, Per Cent” value (pH 8.0, 0.1M NaCl, Na2 SO4 0.75 M) is on record as 12.05 Per Cent; the “Reaction Velocity, Per Cent” value (pH 8.0, 0.1M NaCl, Na2 SO4 0.9 M) is listed as 12.25 Per Cent.
